Reference: publication PMC6150237, “Study of Absorption Characteristics of the Total Saponins from Radix Ilicis Pubescentis in an In Situ Single-Pass Intestinal Perfusion (SPIP) Rat Model by Using Ultra Performance Liquid Chromatography (UPLC)” (Molecules : A Journal of Synthetic Chemistry and Natural …, 2017)
Entries after “also recorded” stand apart in the source; their conditions may differ.

Legend:
[1] = In situ single-pass intestinal perfusion (SPIP), saponins administrated in monomer forms; assay type: in vivo; parameters: key to Papp / Ka: -: no absorption; conditions: male, Sprague-Dawley, rat, other: in situ single-pass intestinal perfusion
Protocol: (§1) MDQ-TS perfusion samples at low, middle, and high concentration levels of 1.25, 2.5, and 5.0 mg·mL^−1 were prepared by separately dissolving MDQ-TS in the minimum amount of DMSO and diluted with K-R buffer solution. The amount of DMSO was 0.5% in the final perfusion solutions. C1, C2, C3, C4, DC1, and DC2 perfusion samples with the concentration equivalent to the amount contained in 2.5 mg·mL^−1 of MDQ-TS were individually prepared in the same way. Verapamil, amantadine and EDTA were directly dissolved in the MDQ-TS perfusate with terminal concentrations of 200 μmol·L^−1, 2.5 mmol·L^−1, and 2.5 mmol·L^−1, accordingly, and used for investigating the mechanisms involved for absorption.
(§2) In situ single-pass intestinal perfusion (SPIP) studies were performed using an experimental design adapted from the literature with some modifications. Briefly, male Sprague-Dawley rats weighing 180–220 g were acclimatized for at least one week before the experiment, and fasted for 18 h with free access to water before the perfusion experiment. Rats were anesthetized with an intraperitoneal injection of urethane (30 mg·kg^−1 body weight), and kept on a homeothermic blanket to maintain normal body temperature. The abdomen was opened with a midline longitudinal incision, and three segments of rat intestine (duodenum, jejunum, and ileum) of approximately 10 cm each were carefully cannulated on two ends with plastic tubing. Initially, the perfusion solution free of drug (37 °C) was pumped by peristaltic pump (BT100-1F, Longer Pump Co., Baoding, China) through the cannulated segments at a flow rate of 1 mL/min for approximately 30 min in order to clean out any residual debris. Secondly, the perfusion solution containing a known concentration of substance (C1, C2, C3, C4, DC1, DC2, and MDQ-TS) was perfused at 37 °C through the intestinal lumen at a constant flow rate of 0.2 mL/min. The first 20 min of period corresponds to steady state, i.e., when the substance is in equilibrium with the intestinal membrane. After steady state, samples were collected from distal portion of duodenum, jejunum and ileum at 10 min intervals (0–10, 10–20, 20–30, 30–40, 40–50, 50–60 min) in pre-weighted vials. Samples were immediately frozen at −20 °C until analysis by validated UPLC. During the experiment, care was taken to avoid disturbance of the circulatory system and the exposed segment was covered with a piece of sterilized gauze to keep it warm and moist by frequent application of warm (37 °C) saline. The intestinum tenue maintained its viability and intact state without disrupting the blood supply throughout the experimental period. Finally, animals were sacrificed after depth anesthesia by intraperitoneal injection of urethane, according to protocols for euthanasia in experimental animals. After death, the intestinal segment was removed for measurements of length and inside diameter.
(§3) The net water flux in the in situ perfusion studies (water absorption and efflux in the intestinal segment) was determined by gravimetric method. The effective absorption rate constant (Ka) and effective apparent permeability (Papp) of compounds in the intestinal segments were calculated according to the following mathematical expression:(1) Ka=(1−CoutQout/CinQin)Q/V (2) Papp=−Qln(CoutQout/CinQin)/2πrl where Cin and Cout are the concentration of test drug in the effluent perfusate through the inlet and outlet tube (μg·mL^−1), respectively. Qin and Qout represent the inlet and outlet volume of effluent perfusate (mL), respectively. Q is the volume flow rate of perfusion (mL·h^−1). V is the volume of the intestinal segment concerned (mL). 2πrl is the area of the mass transfer surface of intestinal segment concerned (cm^2).

[2] = tested on: rat small intestine (duodenum, jejunum, ileum); assay: as above; assay type: in vivo; parameters: key to Papp / Ka: -: no absorption; conditions: for permeability classification: monomers, Papp > 0.12 × 10^−2 cm·min^−1 classified as completely absorbed (highly permeable)
Protocol: as §1, §2, §3

[3] = In situ single-pass intestinal perfusion (SPIP), saponins administrated in MDQ-TS form; assay type: in vivo, rat; conditions: male, Sprague-Dawley, rat, other: in situ single-pass intestinal perfusion
Protocol: as §1, §2, §3

[4] = tested on: rat small intestine (duodenum, jejunum, ileum); assay: as above; assay type: in vivo
Protocol: as §1, §2, §3

rat duodenum = assay: SPIP of MDQ-TS with or without amantadine (endocytosis inhibitor); assay type: in vivo; conditions: MDQ-TS 2.5 mg/mL, amantadine 2.5 mmol·L^−1
Protocol: as §1, §2
as §3, with “(cm^2). […]” for “(cm^2).”

[5] = cited from earlier work
[6] = administered in monomer forms, summary bound
[7] = monomer form, duodenum, concentration equivalent to 2.5 mg·mL^−1 MDQ-TS, n = 5
[8] = MDQ-TS form 1.25 mg·mL^−1, duodenum, n = 5
[9] = MDQ-TS form 1.25 mg·mL^−1, ileum, n = 5
[10] = MDQ-TS form 1.25 mg·mL^−1, jejunum, n = 5
[11] = MDQ-TS form 2.5 mg·mL^−1, duodenum, n = 5
[12] = MDQ-TS form 2.5 mg·mL^−1, ileum, n = 5
[13] = MDQ-TS form 2.5 mg·mL^−1, jejunum, n = 5
[14] = MDQ-TS form 5.0 mg·mL^−1, duodenum, n = 5
[15] = MDQ-TS form 5.0 mg·mL^−1, ileum, n = 5
[16] = MDQ-TS form 5.0 mg·mL^−1, jejunum, n = 5
[17] = administrated in MDQ-TS form, summary bound (except DC2 in 1.25 mg·mL^−1 MDQ-TS group)

| Compound | Papp [1, 6] [×10⁻⁶ cm/s] | Papp [1, 7] [×10⁻⁶ cm/s] | Papp ([1]; monomer form, ileum, n = 5) [×10⁻⁶ cm/s] | Papp ([1]; monomer form, jejunum, n = 5) [×10⁻⁶ cm/s] | Ka [2, 7] | Ka ([2]; monomer form, ileum, n = 5) | Ka ([2]; monomer form, jejunum, n = 5) | permeability classification [2] | Papp [3, 8] [×10⁻⁶ cm/s] | Papp [3, 9] [×10⁻⁶ cm/s] | Ka [4, 8] | Ka [4, 9] | Ka [4, 10] | Ka [4, 11] | Ka [4, 12] | Ka [4, 13] | Ka [4, 14] | Ka [4, 15] | Ka [4, 16] | decrease of absorption compared with non-Amantadine added group (rat duodenum) [%] | also measured |
| --- | --- | --- | --- | --- | --- | --- | --- | --- | --- | --- | --- | --- | --- | --- | --- | --- | --- | --- | --- | --- | --- |
| C[C@@H]1CC[C@]2(C(=O)O)CC[C@]3(C)C(=CC[C@@H]4[C@@]5(C)CC[C@H](O)[C@@](C)(C(=O)O)[C@@H]5CC[C@]43C)[C@@H]2[C@]1(C)O [C1, ilexgenin A] | > 20 | 55 | 50 | 58.3 | 1.77 ± 0.17 ×10^−2 min^−1 | 1.50 ± 0.25 ×10^−2 min^−1 | 1.65 ± 0.19 ×10^−2 min^−1 | highly permeable | 36.7 | 25 | 1.86 ± 0.73 ×10^−2 min^−1 | 0.89 ± 0.08 ×10^−2 min^−1 | 0.95 ± 0.28 ×10^−2 min^−1 | 1.70 ± 0.31 ×10^−2 min^−1 | 2.90 ± 0.37 ×10^−2 min^−1 | 2.23 ± 0.39 ×10^−2 min^−1 | 1.68 ± 0.74 ×10^−2 min^−1 | 1.48 ± 0.76 ×10^−2 min^−1 | 2.30 ± 1.24 ×10^−2 min^−1 | 40 | Papp [3, 10]: 28.3 ×10⁻⁶ cm/s; Papp [3, 11]: 50 ×10⁻⁶ cm/s; Papp [3, 12]: 68.3 ×10⁻⁶ cm/s; Papp [3, 13]: 55 ×10⁻⁶ cm/s; Papp [3, 14]: 56.7 ×10⁻⁶ cm/s; Papp [3, 15]: 41.7 ×10⁻⁶ cm/s; Papp [3, 16]: 61.7 ×10⁻⁶ cm/s; Papp [3, 17]: > 20 ×10⁻⁶ cm/s; absolute oral bioavailability ([5]; calculated based on literature data): low value; maximum plasma concentration ([5]; oral administration of C1, 100 mg/kg): approximately 350 ng·mL^−1 |
| CC1CCC2(C(=O)OC3OC(CO)C(O)C(O)C3O)CCC3(C)C(=CCC4C5(C)CCC(O)C(C)(C(=O)O)C5CCC43C)C2C1(C)O (stereo not drawn) [C2, ilexsaponin A1] | > 20 | 40 | 41.7 | 41.7 | 1.40 ± 0.29 ×10^−2 min^−1 | 1.62 ± 0.32 ×10^−2 min^−1 | 1.72 ± 0.16 ×10^−2 min^−1 | highly permeable | 28.3 | 23.3 | 1.10 ± 0.40 ×10^−2 min^−1 | 1.61 ± 0.37 ×10^−2 min^−1 | 0.74 ± 0.25 ×10^−2 min^−1 | 0.85 ± 0.20 ×10^−2 min^−1 | 1.89 ± 0.35 ×10^−2 min^−1 | 0.68 ± 0.18 ×10^−2 min^−1 | 1.13 ± 0.62 ×10^−2 min^−1 | 0.85 ± 0.27 ×10^−2 min^−1 | 1.21 ± 0.51 ×10^−2 min^−1 | 71 | Papp ([2]; monomer form, ileum, n = 5): 0.25 ± 0.03 ×10^−2 cm·min^−1; Papp ([2]; monomer form, jejunum, n = 5): 0.25 ± 0.01 ×10^−2 cm·min^−1; Papp [3, 10]: 28.3 ×10⁻⁶ cm/s; Papp [3, 11]: 45 ×10⁻⁶ cm/s; Papp [3, 12]: 46.7 ×10⁻⁶ cm/s; Papp [3, 13]: 43.3 ×10⁻⁶ cm/s; Papp [3, 14]: 36.7 ×10⁻⁶ cm/s; Papp [3, 15]: 23.3 ×10⁻⁶ cm/s; Papp [3, 16]: 33.3 ×10⁻⁶ cm/s; Papp [3, 17]: > 20 ×10⁻⁶ cm/s |
| ilexsaponin B3 [DC1] |  |  |  |  |  |  |  |  |  |  | 0.56 ± 0.17 ×10^−2 min^−1 | 0.59 ± 0.35 ×10^−2 min^−1 | 0.46 ± 0.21 ×10^−2 min^−1 | 1.76 ± 0.44 ×10^−2 min^−1 | 1.65 ± 0.33 ×10^−2 min^−1 | 1.99 ± 0.49 ×10^−2 min^−1 | 1.53 ± 0.55 ×10^−2 min^−1 | 1.21 ± 0.58 ×10^−2 min^−1 | 2.05 ± 0.72 ×10^−2 min^−1 | 53 | Ka ([2]; monomer form, duodenum, symbol): -; Papp ([2]; monomer form, duodenum, symbol): -; Ka ([2]; monomer form, ileum, symbol): -; Papp ([2]; monomer form, ileum, symbol): -; Ka ([2]; monomer form, jejunum, symbol): -; Papp ([2]; monomer form, jejunum, symbol): -; intestinal absorption of monomers ([2]; monomer form, small intestine, result in words): could not be absorbed by small intestine at all; also recorded: no absorption; also recorded: could not be absorbed by the gastrointestinal tract at all; Papp [4, 8]: 0.13 ± 0.05 ×10^−2 cm·min^−1; Papp [4, 9]: 0.22 ± 0.13 ×10^−2 cm·min^−1; Papp [4, 10]: 0.23 ± 0.15 ×10^−2 cm·min^−1; Papp [4, 11]: 0.34 ± 0.08 ×10^−2 cm·min^−1; Papp [4, 12]: 0.16 ± 0.07 ×10^−2 cm·min^−1; Papp [4, 13]: 0.35 ± 0.08 ×10^−2 cm·min^−1; Papp [4, 14]: 0.30 ± 0.13 ×10^−2 cm·min^−1; Papp [4, 15]: 0.21 ± 0.11 ×10^−2 cm·min^−1; Papp [4, 16]: 0.32 ± 0.19 ×10^−2 cm·min^−1; Papp [4, 17]: > 0.0012 cm/min |
